From PMC8597757, “Pharmacokinetic and Safety Profile of the Novel HIV Nonnucleoside Reverse Transcriptase Inhibitor MK-8507 in Adults without HIV” (Antimicrobial Agents and Chemotherapy, 2021)
“Also recorded” adds a separate entry of the source.

Key:
[1] = Safety and tolerability in phase 1 studies; assay type: in vivo, human
Description: The safety and tolerability of MK-8507 were assessed by clinical evaluation, including vital signs, 12-lead electrocardiograms, laboratory safety tests, and clinical monitoring of AEs.

CYP3A4 = settings: preclinical in vitro studies, no reference given; cited from earlier work
[2] = Single-dose plasma pharmacokinetics of MK-8507 (suspension, study 1; tablet, study 2); assay type: in vivo; settings: human; for Cmax: n=6, read-out: Cmax (geometric mean [95% CI]); for AUC(0-t): n=6, read-out: AUC0–168 (geometric mean [95% CI]); for concentration at 168 h: n=6, read-out: C168hr (geometric mean [95% CI])
Description: (§1) Study 1 was a 4-period, alternating panel (A and B), rising single-dose trial. Participants in each panel were randomized to receive single rising doses of MK-8507 (n = 6 per panel) or placebo (n = 2 per panel) as an oral suspension. All study drugs were administered after an overnight fast, except in period 4. […] There was a minimum 20-day washout interval between doses within each panel and a 10-day interval between each dosing period. […] MK-8507 in plasma was extracted by protein precipitation and analyzed by reversed-phase chromatographic separation coupled with tandem mass spectrometric detection by Merck & Co., Inc. (West Point, PA, USA). The liquid chromatography-tandem mass spectrometric (LC-MS/MS) system consisted of a Waters Acquity ultraperformance liquid chromatography system (Waters Corporation, Milford, MA, USA) employing a turbo ionspray interface in the negative ion mode. The lower limit of quantitation was 1.0 ng/mL (2.03 nM) with a linear calibration range from 1.0 to 1000 ng/mL. The mean intrarun accuracy was 94.8 to 113% (precision, ≤6.2% coefficient of variation [CV]), and the mean interrun accuracy was 94.4 to 103.0% (precision, ≤8.6% CV). […] Statistical analyses were performed using SAS software version 9.3 (SAS Institute Inc., Cary, NC, USA). […] The least-squares geometric mean (GM) and corresponding 95% CIs obtained from the models were exponentiated to provide estimates for the population GMs and CIs on the original scales.

[3] = Food effect assessment (100 mg suspension, high-fat meal vs fasted); assay type: in vivo, human
Description: as §1

[4] = tested on: common NNRTI resistance-associated variants; settings: cited from earlier work
[5] = Dose proportionality assessment of single oral doses 2 to 1,200 mg; assay type: in vivo, human
Description: The AUC0-168hr and […] group was not statistically significant at the 0.05 level and was therefore omitted from the final model. An overall slope was estimated across all groups.

[6] = Multiple-dose (once weekly for 3 weeks) plasma pharmacokinetics of MK-8507 tablet; assay type: in vivo, human; settings: for AUC(0-t) / concentration at 168 h / Cmax / Tmax / half-life: human, plasma, oral; for AUC(0-t): read-out: AUC0–168 (geometric mean [95% CI]); for concentration at 168 h: read-out: C168hr (geometric mean [95% CI]); for Cmax: read-out: Cmax (geometric mean [95% CI])
Description: MK-8507 in plasma was extracted by protein precipitation and analyzed by reversed-phase chromatographic separation coupled with tandem mass spectrometric detection by Merck & Co., Inc. (West Point, PA, USA). The liquid chromatography-tandem mass spectrometric (LC-MS/MS) system consisted of a Waters Acquity ultraperformance liquid chromatography system (Waters Corporation, Milford, MA, USA) employing a turbo ionspray interface in the negative ion mode. The lower limit of quantitation was 1.0 ng/mL (2.03 nM) with a linear calibration range from 1.0 to 1000 ng/mL. The mean intrarun accuracy was 94.8 to 113% (precision, ≤6.2% coefficient of variation [CV]), and the mean interrun accuracy was 94.4 to 103.0% (precision, ≤8.6% CV). […] The AUC0-168hr and […] group was not statistically significant at the 0.05 level and was therefore omitted from the final model. An overall slope was estimated across all groups.

[7] = po, 30 mg, single oral dose 30 mg, suspension, fasted
[8] = po, 400 mg, single oral dose 400 mg, suspension, fasted
[9] = 100 mg suspension, compared with fasted administration
[10] = 100 mg tablet once weekly for 3 weeks, n=6
[11] = 200 mg tablet once weekly for 3 weeks, n=5/6
[12] = 400 mg tablet once weekly for 3 weeks, n=6
[13] = 100 mg, 100 mg tablet once weekly, wk 1, n=6
[14] = 100 mg, 100 mg tablet once weekly, wk 3, n=6
[15] = 200 mg, 200 mg tablet once weekly, wk 1, n=5/6
[16] = 200 mg, 200 mg tablet once weekly, wk 3, n=5
[17] = 400 mg, 400 mg tablet once weekly, wk 1, n=6
[18] = 400 mg, 400 mg tablet once weekly, wk 3, n=6

Question: Which results are given for N#Cc1cc(Cl)cc(Oc2c(C(F)(F)F)ncn(Cc3cc(C(F)(F)F)c(=O)[nH]n3)c2=O)c1 [MK-8507]?
Answer: changes in clinical laboratory assessments, vital signs, electrocardiograms ([1]; both studies): no clinically meaningful changes; also recorded: No clinically meaningful relationships were observed; discontinuation due to an adverse experience ([1]; both studies): no participants discontinued; seriousness and intensity of adverse events ([1]; both studies): nonserious and mild in intensity; tolerability ([1]; single and multiple QW doses): generally well tolerated; participants with cough ([1]; study 1): 3; participants with headache ([1]; study 1): 4; participants with myalgia ([1]; study 1): 2; participants with rhinorrhea ([1]; study 1): 2; AEs considered related to MK-8507 ([1]; study 1, single dose): none; total nonserious AEs ([1]; study 1, single oral dose of MK-8507): 38; AEs considered related to MK-8507 ([1]; study 2, multiple doses): none; total nonserious AEs ([1]; study 2, multiple doses of MK-8507): 13; AEs considered related to MK-8507 ([1]; study 2, single doses (decreased appetite)): One; total nonserious AEs ([1]; study 2, single doses of MK-8507): 10; induction of CYP3A4 expression in vitro (CYP3A4): demonstrated the potential to induce expression of CYP3A4; half-life ([2]; oral, overall, discussion, read-out: terminal t½ (converted)): ~70 h; half-life ([2]; oral, single doses 2 to 1,200 mg, range across doses, read-out: mean terminal half-life (t1/2)): 58 to 84 h; half-life ([2]; oral, some participants, 336 h of PK sampling, read-out: t1/2 in some participants): > 100 h; Tmax ([2]; oral, suspension, fasted, range across doses, read-out: median Tmax): 2 to 4 h; Cmax ([2]; po, 2 mg, single oral dose 2 mg, suspension, fasted): 50 nM; AUC(0-inf) ([2]; po, 10 mg, single oral dose 10 mg, suspension, fasted, n=6, read-out: AUC0-∞ (geometric mean [95% CI])): 15.2 µM·h; Cmax ([2]; po, 10 mg, single oral dose 10 mg, suspension, fasted): 220 nM; AUC(0-t) [2, 7]: 39.7 µM·h; concentration at 168 h [2, 7]: 100 nM; Tmax ([2]; po, 30 mg, single oral dose 30 mg, suspension, fasted, n=6, read-out: Tmax (median [min, max])): 2 h; Tmax ([2]; po, 100 mg, single oral dose 100 mg, suspension, fasted, n=6, read-out: Tmax (median [min, max])): 2.04 h; AUC(0-t) ([2]; po, 200 mg, single oral dose 200 mg, suspension, fasted): 287 µM·h; concentration at 168 h [2, 8]: 1300 nM; Cmax [2, 8]: 11500 nM; Tmax ([2]; po, oral doses across both studies, suspension or tablet, read-out: time to maximum concentration (Tmax)): 2 to 7 h; effect of a high-fat meal on MK-8507 pharmacokinetics ([3]; 100 mg suspension): no clinically meaningful effect; also recorded: no meaningful effect on AUC0–∞ or C168hr; change in C168hr by a high-fat meal [3, 9]: no change; decrease of AUC0–∞ by a high-fat meal [3, 9]: ~9%; decrease of Cmax by a high-fat meal [3, 9]: 35%; delay of Tmax by a high-fat meal [3, 9]: ~8 h; AUC(0-inf) ([3]; human, single oral dose 100 mg (fed), suspension, following a high-fat meal, plasma, n=6, read-out: AUC0-∞ (geometric mean [95% CI])): 159 µM·h; AUC(0-t) ([3]; human, single oral dose 100 mg (fed), suspension, following a high-fat meal, plasma, n=6, read-out: AUC0–168 (geometric mean [95% CI])): 126 µM·h; half-life ([3]; human, single oral dose 100 mg (fed), suspension, following a high-fat meal, plasma, n=6, read-out: Apparent terminal t½ (geometric mean [%GVC]) (converted)): 72.6 h; concentration at 168 h ([3]; human, single oral dose 100 mg (fed), suspension, following a high-fat meal, plasma, n=6, read-out: C168hr (geometric mean [95% CI])): 310 nM; Cmax ([3]; human, single oral dose 100 mg (fed), suspension, following a high-fat meal, plasma, n=6, read-out: Cmax (geometric mean [95% CI])): 1670 nM; Tmax ([3]; human, single oral dose 100 mg (fed), suspension, following a high-fat meal, plasma, n=6, read-out: Tmax (median [min, max])): 10 h; GMR fed/fasted, C168hr ([3]; single oral dose 100 mg suspension, high-fat meal vs overnight fast, n=6): 1.02; in vitro activity against common NNRTI resistance-associated variants [4]: demonstrated in vitro activity; dose proportionality of pharmacokinetics ([5]; 2 to 1,200 mg): increased dose proportionally; also recorded: approximately dose proportional; Estimate of slope, C168hr as a function of dose ([5]; single oral doses of 2 to 1,200 mg, ln-ln linear mixed-effect model): 0.9932; GMR (accumulation ratio, wk 3/wk 1 [90% CI]) of AUC0–168 [6, 10]: 1.18 (1.12–1.25); GMR (accumulation ratio, wk 3/wk 1 [90% CI]) of C168hr [6, 10]: 1.14 (0.87–1.50); GMR (accumulation ratio, wk 3/wk 1 [90% CI]) of Cmax [6, 10]: 1.12 (0.96–1.30); GMR (accumulation ratio, wk 3/wk 1 [90% CI]) of AUC0–168 [6, 11]: 1.23 (1.16–1.31); GMR (accumulation ratio, wk 3/wk 1 [90% CI]) of C168hr [6, 11]: 1.22 (0.90–1.65); GMR (accumulation ratio, wk 3/wk 1 [90% CI]) of Cmax [6, 11]: 1.15 (0.98–1.36); GMR (accumulation ratio, wk 3/wk 1 [90% CI]) of AUC0–168 [6, 12]: 1.23 (1.16–1.31); GMR (accumulation ratio, wk 3/wk 1 [90% CI]) of C168hr [6, 12]: 1.21 (0.92–1.59); GMR (accumulation ratio, wk 3/wk 1 [90% CI]) of Cmax [6, 12]: 1.06 (0.91–1.23); accumulation with multiple dosing ([6]; QW over 3 weeks, 100-mg, 200-mg, 400-mg doses): minimal accumulation; also recorded: modest accumulation; accumulation GMR (day 36, day 22), C168hr ([6]; QW over 3 weeks, 100-mg, 200-mg, 400-mg doses, range): 1.14 to 1.22; AUC(0-t) [6, 13]: 157 µM·h; concentration at 168 h [6, 13]: 320 nM; Cmax [6, 13]: 2940 nM; Tmax ([6]; 100 mg, 100 mg tablet once weekly, wk 1, n=6, read-out: Tmax (median [min, max])): 3 h; concentration at 168 h ([6]; 100 mg, 100 mg tablet once weekly, wk 2, n=6): 390 nM; AUC(0-t) [6, 14]: 185 µM·h; half-life ([6]; 100 mg, 100 mg tablet once weekly, wk 3, n=6, read-out: Apparent terminal t½ (geometric mean [%GVC]) (converted)): 66.7 h; concentration at 168 h [6, 14]: 370 nM; Cmax [6, 14]: 3290 nM; Tmax ([6]; 100 mg, 100 mg tablet once weekly, wk 3, n=6, read-out: Tmax (median [min, max])): 3.03 h; AUC(0-t) [6, 15]: 285 µM·h; concentration at 168 h [6, 15]: 590 nM; Cmax [6, 15]: 4870 nM; Tmax ([6]; 200 mg, 200 mg tablet once weekly, wk 1, n=5/6, read-out: Tmax (median [min, max])): 5 h; concentration at 168 h ([6]; 200 mg, 200 mg tablet once weekly, wk 2, n=5): 700 nM; AUC(0-t) [6, 16]: 352 µM·h; half-life ([6]; 200 mg, 200 mg tablet once weekly, wk 3, n=5, read-out: Apparent terminal t½ (geometric mean [%GVC]) (converted)): 74.2 h; concentration at 168 h [6, 16]: 720 nM; Cmax [6, 16]: 5610 nM; Tmax ([6]; 200 mg, 200 mg tablet once weekly, wk 3, n=5, read-out: Tmax (median [min, max])): 4.01 h; AUC(0-t) [6, 17]: 563 µM·h; concentration at 168 h [6, 17]: 1230 nM; Cmax [6, 17]: 10800 nM; Tmax ([6]; 400 mg, 400 mg tablet once weekly, wk 1, n=6, read-out: Tmax (median [min, max])): 4 h; concentration at 168 h ([6]; 400 mg, 400 mg tablet once weekly, wk 2, n=6): 1110 nM; AUC(0-t) [6, 18]: 694 µM·h; half-life ([6]; 400 mg, 400 mg tablet once weekly, wk 3, n=6, read-out: Apparent terminal t½ (geometric mean [%GVC]) (converted)): 73.1 h; concentration at 168 h [6, 18]: 1490 nM; Cmax [6, 18]: 11500 nM; Tmax ([6]; 400 mg, 400 mg tablet once weekly, wk 3, n=6, read-out: Tmax (median [min, max])): 4 h; half-life ([6]; 400 mg, 100, 200, 400 mg tablet once weekly, range across doses, read-out: geometric mean apparent t1/2): 67 to 74 h; Tmax ([6]; 400 mg, 100, 200, 400 mg tablet once weekly, range across doses, read-out: median time of peak concentration postdose): 3 to 5 h
